From patent US11408885B2, “Compositions and multiplex assays for characterizing active proteases and their inhibitors” (Massachusetts Institute of Technology, priority 2017, dated 2022)

Assays:
[1] = tested on: aggregate metalloprotease activity of conditioned medium; assay: FRET substrate cleavage in conditioned media of cell cultures; type: biochemical, human
Description: Eight conditioned mediums were assayed, each tested in two complete biological replicates (n=2), from these cell cultures: four endometrial related cell populations including (1) primary endometrial stromal cells (pESC), (2) telomerase-immortalized human endometrial stromal cells (tHESC) (Krikun et al., Endocrinology, 145(5):2291-6 (2004)), (3) an adenocarcinoma endometrial epithelial cell line, Ishikawa, and (4) an epithelial line derived from an endometriosis lesion, 12z; three canonical cancer cell lines including (5) A549, (6) […], and (7) HT1080; as well as (8) human telomerase reverse transcriptase (hTERT) immortalized mesenchymal stem cell line (MSC).
Conditioned supernatant was prepared: collected at 12 h, spun down at 200 g for 5 min to remove debris, and immediately flash-frozen. For FRET-substrate assays involving this supernatant, final reactions were composed of a 2:1:1 mixture of […] substrate diluted from 5 mMDMSO stock into phosphate buffered saline, 4 nM active MMP7 diluted in ‘MMP buffer’, and thawed supernatant.
Validation of HxBP-Bt probe binding to the active sites of proteases in conditioned media was performed based on the FRET-based study as described in Example 1, without the addition of MMP capture beads. […]

[2] = tested on: proteases in peritoneal fluid of control donors and endometriosis patients; assay: FRET substrate cleavage in clarified peritoneal fluid; type: biochemical, human; settings: peritoneal fluids of six control donors and six endometriosis patients; 500 nM or 1500 nM HxBP-Bt
Excerpt: Clarified peritoneal fluid from patients with endometriosis was compared to that from a control population with regards to the active MMP compositions and quantities. Peritoneal fluid is a mixture of cell debris, leukocytes, and thousands of soluble proteins including over 100 proteases and protease inhibitors that is contained within the pelvic cavity and interacts with endometriotic lesions (Amon, et al, PLoS ONE, 5(6) (2010)).
All laparoscopy patients provided informed consent in accordance with a protocol approved by the Partners Human Research Committee and the Massachusetts Institute of Technology Committee on the Use of Humans as Experimental Subjects. Enrollment was limited to pre-menopausal women with regular cycles (26-32 days) and excluded individuals who had received hormonal treatment within three months of surgery. Moderate/Severe (Stage III/IV) endometriosis was diagnosed according to the revised criteria of the American Society for Reproductive Medicine 8. Peritoneal fluid was aspirated from the rectouterine pouch immediately following trocar insertion and prior to peritoneal lavage or surgical manipulation. Upon collection, specimens were immediately placed on wet ice and clarified within 15 min. by centrifugation for 10 min. at 1000 rcf. Clarified aspirates were transported to the laboratory on ice, aliquoted, and stored at −80° C. until analysis.

## CC(C)CC(C(=O)NC(Cc1ccc(C(=O)c2ccccc2)cc1)C(=O)NCCOCCOCCOCC(=O)NCC(C)(C)SSC(C)(C)CNC(=O)CCCCC1SCC2NC(=O)NC21)C(O)C(=O)NO (stereo not drawn) [HxBP-Bt, biotin-tagged hydroxamate benzophenone (HxBP-Bt) probe]
[1]; eight conditioned media normalized to 1000 μg/mL, 500 nM HxBP-Bt
  effect on substrate cleavage (bulk protease activity): greatly deceased the substrate cleavage ability
[1]; eight conditioned media, 1500 nM HxBP-Bt, in some cases
  effect on substrate cleavage (bulk protease activity): further decreased the protease activities
[2]
  effect on substrate cleavage: inhibited substrate cleavage in all samples
